From PubChem BioAssay AID179 (DTP/NCI, 2004) come the findings set out here.

Molecules are shown by their SMILES. The source made the active and inactive calls.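 Rule for the calls: active = compounds giving half or more protection of infected cells from virus-caused growth loss, again on retest; inactive = the rest.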 Bounds are passed on as bounds.

For this assay, the system named is CEM cells HIV-1 protection, formazan growth assay. The experiment in a line: NCI AIDS Antiviral Assay. Conditions: for IC50: measured here: growth of uninfected CEM cells. Put shortly:
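CEM (human) cells, HIV-1 infected vs uninfected, 5-point dosing, formazan growth read-out. Retest threshold 50% protection.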

By EC50 is commonly meant the midpoint of the concentration-response curve. Usually IC50 stands for the concentration that gives 50% inhibition. The low end stands for inhibition by little substance, the high end for a need for much substance. As for `C[C@]12CC[C@H](CCC=C(c3cc(Cl)c(O)c(C(=O)O)c3)c3cc(Cl)c(O)c(C(=O)O)c3)C[C@@H]1CC[C@@H]1[C@@H]2CC[C@]2(C)[C@@H](CCC=C(c3cc(Cl)c(O)c(C(=O)O)c3)c3cc(Cl)c(O)c(C(=O)O)c3)CC[C@@H]12`, the EC50 was 6.61 µM and the IC50 worked out at 110 µM.
As for `Fc1ccc(C2(CCCN3CCc4[nH]c5cc(F)ccc5c4C3)OCCO2)cc1`, the EC50 is > 200 µM and the IC50 came to 18.6 µM.
`CSC1=C(C#N)C(=O)N(c2ccc(C)cc2)C(=O)C1C#N` (stereo unspecified): the EC50 is > 200 µM and the IC50 amounted to 151 µM.
In the case of `CC1=C(C)CC(C#N)(C#N)C(C#N)(C#N)C1`, the EC50 was > 200 µM and the IC50 was determined as 19.1 µM.
On to `CCOC(=O)CN1C(=O)NC(C)(c2ccccc2)C1=O` (stereo unspecified), for which the EC50 was > 200 µM and the IC50 is > 200 µM.
For the molecule `Nc1cc(=O)[nH][nH]1`, the EC50 is > 200 µM and the 50% inhibitory concentration (IC50) is > 200 µM.
As to `COc1cc(/C=C/c2csnn2)cc(OC)c1OC`, the EC50 was > 468 µM and the IC50 is 117 µM.
Consider `CC1(CCc2ccccc2)CC1(Br)Br` (stereo unspecified), for which the EC50 is > 200 µM and the IC50 came to 95.5 µM.
Consider `COC(=O)c1ccc(C(=O)OC)c2nc3cc(Cl)ccc3nc12`, for which the EC50 is > 30.2 µM and the half-inhibitory concentration (IC50) is > 30.2 µM.
On to `COc1cc(Br)cc2nc(-c3cccs3)oc12`, for which the EC50 is > 200 µM and the IC50 was determined as 141 µM.
For `C=CP(=S)(c1ccccc1)c1ccccc1`, in that order: > 56.2 µM and > 56.2 µM.
For `CCc1ccc(/C=C/C(=O)C2CN(CC)CCC2(O)/C=C/c2ccc(CC)cc2)cc1` (stereo unspecified), the EC50 was > 200 µM and the IC50 worked out at 4.37 µM.
With `O=c1c(OS(=O)(=O)O)c(-c2ccc(OS(=O)(=O)O)cc2OS(=O)(=O)O)oc2cc(OS(=O)(=O)O)cc(OS(=O)(=O)O)c12`, the EC50 is > 100 µM and the IC50 was > 100 µM.
For `Nc1cc(OCc2ccccc2)c(OCc2ccccc2)cc1C=O`, the EC50 is > 200 µM and the half-inhibitory concentration (IC50) is 18.6 µM.
On to `O=C1c2cccc3cc([N+](=O)[O-])cc(c23)C(=O)N1Cc1ccccc1`, for which the EC50 is > 200 µM and the IC50 amounted to 5.75 µM.
On the same counts, the results for `CSc1c(C#N)c(S)[nH]c(=O)c1C#N` are 83.2 µM and 126 µM.
Regarding `CC1CC2OC(/C=C/C=C/C=C/C=C\C=C\C(O)=C3/C(=O)C(C(C)C)N(C)C3=O)C(O)C2O1` (stereo unspecified), the EC50 is > 200 µM and the IC50 stood at 107 µM.
As for `COc1ccc(C(c2c(O)c3ccccc3oc2=O)N2CCOCC2)cc1` (stereo unspecified), the EC50 is > 200 µM and the IC50 was > 100 µM.
In the case of `CCCCC1Sc2cc(OC)cc([N+](=O)[O-])c2NC1=O` (stereo unspecified), the EC50 was > 200 µM and the IC50 is 61.7 µM.
For `CN1OC2CCC1CC(OC(c1ccccc1)c1ccccc1)C2` (stereo unspecified), in that order: > 200 µM and > 200 µM.
For the molecule `CN(C)C=Nc1nc(=O)n(C2CCC(CO)O2)cc1F` (stereo unspecified), the EC50 was 0.0676 µM and the IC50 turned out to be 95.5 µM.
Turning to `O=NN/C(=C1\Nc2ccc([N+](=O)[O-])cc2NC1=O)C(O)c1ccc([N+](=O)[O-])cc1` (stereo unspecified), the EC50 is > 234 µM and the IC50 was 191 µM.
For `C[C@H](N)C(O)C/C=C\C/C=C\C/C=C\C/C=C\C/C=C\C/C=C\CCCCCCC(O)[C@H](C)N` (stereo partly specified), the outcome was inactive.
On to `N#CCCN(CCC#N)c1ccc(/C=C2\N=C(c3ccccc3)N(c3ccc(C(=O)O)cc3)C2=O)cc1`, for which the EC50 was > 200 µM and the IC50 was 33.9 µM.
As to `COc1cc2nncc(Sc3cnnc4ccccc34)c2cc1OC`, the EC50 is > 61.7 µM and the IC50 is 7.59 µM.
Turning to `COc1ccc(NC(=O)C(=O)Cc2ccc([N+](=O)[O-])c([N+](=O)[O-])c2CC(=O)C(=O)Nc2ccc(OC)cc2OC)c(OC)c1`, the EC50 was > 407 µM and the IC50 was 186 µM.
`COC(=O)C(=O)C1(CCC(C)=O)c2ccccc2-c2ccccc21`: the result was inactive.
Take `COC1(OC)C2(Cl)C(Cl)=C(Cl)C1(Cl)C1C=CC=CC12` (stereo unspecified): the result was inactive.
For `NCCN.O=N[O-].O=N[O-].O=N[O-].O=N[O-].[Co+3].[K+]`, the EC50 is > 724 µM and the IC50 amounted to 219 µM.
Turning to `Cc1cc(N=O)cc(C)c1O`, the EC50 is > 200 µM and the IC50 was found to be 5.13 µM.
Take `O=C(O)CN1CCNCCN(CP(=O)(O)O)CC1`: the EC50 was > 200 µM and the half-inhibitory concentration (IC50) turned out to be 10.5 µM.
With `O=C1CC(c2ccccc2)Sc2ccccc2N1` (stereo unspecified), the EC50 is > 200 µM and the IC50 was 89.1 µM.
With `Cc1cccc(-n2c(N)c(-c3nc4ccccc4[nH]3)sc2=S)c1`, the EC50 was > 5.89 µM and the IC50 is > 5.89 µM.
With `C=Cc1nc2nnc(CCCCCCCCc3nnc4nc(C=C)[nH]n34)n2[nH]1`, the EC50 was > 200 µM and the IC50 stood at 40.7 µM.
In the case of `CC(C)CC(C#N)C(N)=O` (stereo unspecified), the EC50 was > 200 µM and the IC50 is > 200 µM.
With `O=c1c2ncn(COCCCl)c2n(-c2ccccc2)c(=S)n1-c1ccccc1`, the outcome was inactive.
Consider `CC(=O)OCC1OC(n2c(C)c(C)c(C)c(C#N)c2=S)C(OC(C)=O)C(OC(C)=O)C1OC(C)=O` (stereo unspecified), for which the EC50 is > 200 µM and the concentration for half-maximal inhibition (IC50) is > 200 µM.
On to `O=C(OCc1ccccc1)N(CCCCN(CCCNCc1ccccc1)C(=O)OCc1ccccc1)CCCNCc1ccccc1`, for which the EC50 is > 2 µM and the IC50 is 0.871 µM.
In the case of `C=C(C)CCOC(c1ccccc1)(c1ccccc1)c1ccccc1`, the EC50 is > 21.9 µM and the IC50 is > 21.9 µM.
`COc1cc2c(cc1OC)C1C(=O)c3c(O)cc4c(c3OC1CO2)C=CC(C)(C)O4` (stereo unspecified): the EC50 is > 1.82 µM and the 50% inhibitory concentration (IC50) is 0.891 µM.
Take `Cc1ccc(NC(=O)C(=O)Cc2nc3ccccc3o2)c(C)c1`: the EC50 was > 12.3 µM and the IC50 is > 12.3 µM.
As for `Cc1cc(Cl)c(O)c(-c2cc(-c3ccc([N+](=O)[O-])cc3)c3c(N)[nH]c(=O)nc3n2)c1`, the EC50 was > 200 µM and the IC50 stood at 5.25 µM.
Take `O=c1oc(-c2ccccc2)c(-c2ccccc2)c(-c2ccccc2)c1-c1ccccc1`: the EC50 was > 46.8 µM and the IC50 stood at 29.5 µM.
For `COc1ccc(/C=C2\N=C(N3CCCCC3)NC2=O)cc1`, in that order: > 200 µM and > 100 µM.
In the case of `CC(=O)[O-].[Mn+3].[O-]c1ccc(Cl)cc1C=NCCN=Cc1cc(Cl)ccc1[O-]`, the EC50 is > 240 µM and the IC50 is 12 µM.
On to `Cc1cc(=O)[nH]c2[nH][nH]c(=O)c12`, for which the result was inactive.
On to `c1ccc2c(c1)[nH]c1c2nc2ncccn21`, for which the outcome was inactive.
For `O=C(Cn1ccnc1[N+](=O)[O-])NCCO`, the result was inactive.
As to `CC(=O)NNc1nc(C)c(C(=O)NNC(=O)C(=O)Nc2c(C)cccc2C)s1`, the EC50 was > 89.1 µM and the IC50 was found to be 28.2 µM.
As for `O=[N+]([O-])c1ccc(OP(=O)(O)OCC2OC(CP(=O)(O)O)C(O)C2O)cc1` (stereo unspecified), the EC50 was > 200 µM and the IC50 was > 200 µM.
Take `N#CCCN(CCC#N)C(=O)Nc1cccc2ccccc12`: the outcome was inactive.
As to `O=C(c1c(F)c(F)c(F)c(F)c1F)n1c(=O)[nH]c2ccccc21`, the EC50 is > 200 µM and the IC50 was determined as 10.7 µM.
With `N#CC(C#N)=CNC(N)=S`, the EC50 is > 200 µM and the 50% inhibitory concentration (IC50) is > 200 µM.
As for `COc1ccc(-n2cccc2)cc1`, the EC50 is > 200 µM and the IC50 was > 200 µM.
In the case of `Nc1nc2n(n1)C(=O)C(=O)N2`, the EC50 was > 115 µM and the IC50 was > 115 µM.
As to `COP(=O)(OC)C(N)CCSC` (stereo unspecified), the EC50 is > 200 µM and the IC50 was > 200 µM.
As to `C[N+]1(CC(=O)O)C2CCC1CC(O)C2` (stereo unspecified), the EC50 was > 200 µM and the half-maximal inhibitory concentration (IC50) was > 200 µM.
Consider `Cc1ccc(/C=C2\CCOC2=O)cc1`, for which the EC50 was > 138 µM and the IC50 is > 138 µM.
As for `CN(C)c1ccc(C(c2c(O)c3ccc(O)cc3oc2=O)c2c(O)c3ccc(O)cc3oc2=O)cc1`, the EC50 was > 200 µM and the IC50 amounted to 30.2 µM.
For `CC(C)c1cccc(C(C)C)c1NC(=O)/C(CC(=O)CC(c1ccccc1)c1c(O)c2ccccc2oc1=O)=N/O` (stereo unspecified), in that order: > 89.1 µM and > 89.1 µM.
`O=c1[nH]c(Nc2cccc(Br)c2)nc2nc[nH]c12`: the EC50 is > 200 µM and the IC50 is > 100 µM.
Consider `CC1OC(=O)C2CC3CCCCC3C(/C=C/C3CCCC(C)N3C)C12` (stereo unspecified), for which the outcome was inactive.
For the molecule `COC(=O)c1c[nH]c(=O)[nH]c1=O`, the EC50 is > 200 µM and the half-maximal inhibitory concentration (IC50) was > 200 µM.
Turning to `COc1ccc(N=Nc2ccc3oc(=O)c(C(=O)Nc4ccc(Cl)cc4)cc3c2)cc1`, the EC50 is > 200 µM and the IC50 was found to be 33.1 µM.
Take `O=S(=O)(O)ON=C1c2ccccc2-c2ccccc21`: the EC50 was > 200 µM and the IC50 came to 195 µM.
With `CN1CCN(Cc2cc3c(nn2)-c2ccccc2C3=O)CC1`, the EC50 was > 200 µM and the IC50 turned out to be 110 µM.
Regarding `S=C(N/N=C(/c1ccccc1)c1ccccn1)N1CCCCCC1`, the EC50 was > 0.2 µM and the IC50 is 0.115 µM.
For `O=C(C(=O)N1CCc2ccccc21)c1c[nH]c2ccccc12`, in that order: > 200 µM and > 200 µM.
`COc1ccc(/C(=C/n2ccnc2)C(O)c2ccc(OC)c(OC)c2)cc1OC` (stereo unspecified): the EC50 is > 126 µM and the half-maximal inhibitory concentration (IC50) was > 126 µM.
Take `Cc1cc2nnc(-c3ccc(C#N)cc3)n2c2nnnn12`: the EC50 was > 200 µM.
As to `COc1cc(C[C@H]2C(=O)OC[C@@H]2C(=O)c2ccc(OC(C)C)c(O)c2)cc(OC)c1O`, the EC50 is > 2 µM and the IC50 is 0.49 µM.
As for `Cc1cc2nc3c(C(OC4OC(CO)C(O)C(O)C4O)C(O)CO)nn(-c4ccccc4)c3nc2cc1C` (stereo unspecified), the outcome was inactive.
Consider `N#CC1(C2SCCS2=O)C2=C(C(=O)c3ccccc3C2=O)N2CCCC21` (stereo unspecified), for which the outcome was inactive.
On to `C=CCN(N=O)C(=O)N(CCCC(NC(C)=O)C(=O)NCc1ccccc1)Cc1ccccc1` (stereo unspecified), for which the EC50 is > 40.7 µM and the IC50 is > 40.7 µM.
